Source: patent publication US20220330549A1, “USE OF N-BENZYLBENZAMIDE-BASED COMPOUND AS HERBICIDE” (Northwest A&F University, priority 2020, published 2022)

How the values were obtained:
Format in all cases: in vivo
Amaranthus retroflexus [1] = test: Herbicidal activity test for indoor pre-emergence soil treatment; design: key: 1-9 levels; higher = more weed remaining vs blank control; details: 150 g a.i./ha, visual inspection 21 days after treatment
Procedure, shortened: (§1)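 Pre-emergence test following NY/T 1155.3-2006: weed seeds were sown in moistened neutral sandy loam (≤2% organic matter) and covered with 0.5–2.0 cm of soil. After 24 h, the soil was sprayed with a 10% EC diluted in water at 150 g(a.i.)/ha. Damage was scored visually on a 1–9 scale at 21 days.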

Digitaria sanguinalis [2] = test: as above; design: key: 1-9 levels; higher = more weed remaining vs blank control; details: 150 g a.i./ha, visual inspection 21 days after treatment
Procedure, shortened: as §1

green bristlegrass [3] = test: as above; design: key: level 1-9; higher = more weed remaining vs blank control; details: 150 g a.i./ha, visual inspection 21 days after treatment
Procedure, shortened: as §1

Piemarker [4] = test: as above; design: key: level 1-9; higher = more weed remaining vs blank control; details: 150 g a.i./ha, visual inspection 21 days after treatment
Procedure, shortened: as §1

Barnyard grass [5] = test: as above; design: key: level 1-9; higher = more weed remaining vs blank control; details: 150 g a.i./ha, visual inspection 21 days after treatment
Procedure, shortened: as §1

Amaranthus retroflexus [6] = test: Field test for weed control in a corn field; details: for Post-emergence weed control effect, Amaranthus retroflexus: 150 g a.i./ha, 30 days after treatment
Procedure, shortened: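 Field efficacy trial in a corn field following GB/T 17980.42-2000. Test compounds were formulated as 10% emulsifiable concentrates, diluted in water and sprayed post-emergence when corn had 2 to 5 leaves. Each treatment covered 20 m^2 with 4 replicates. A 25% mesotrione oil dispersion served as control. Damage to Amaranthus retroflexus was rated on a 1-9 scale against untreated blank plots.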

goosegrass = test: Field test for weed control in a corn field; details: for Post-emergence weed control effect, Goose grass: 150 g a.i./ha, after treatment
Procedure, shortened: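 Weed control efficacy against goosegrass was tested in a corn field following GB/T 17980.42-2000. Compounds formulated as 10% emulsifiable concentrates were diluted in water and sprayed post-emergence at 150 g(a.i.)/ha when corn had 2 to 5 leaves, with 4 replicates of 20 m^2 plots. Herbicidal activity was rated on a 1-9 scale by damage symptoms and severity.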

Chenopodium album = test: Field test for weed control in a corn field; details: for Post-emergence weed control effect, Chenopodium album: 150 g a.i./ha, after treatment
Procedure, shortened: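 A corn-field efficacy trial following GB/T 17980.42-2000 tested post-emergence control of Chenopodium album. Test compounds formulated as 10% emulsifiable concentrates were diluted in water and sprayed at 150 g(a.i.)/ha when the corn had 2 leaves to 5 leaves, on 20 m^2 plots with 4 replicates. Herbicidal activity was rated on a 1-9 scale by damage symptoms and severity.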

Digitaria sanguinalis [7] = test: Field test for weed control in a corn field; details: for Post-emergence weed control effect, Digitaria sanguinalis: 150 g a.i./ha, after treatment
Procedure, shortened: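 Field trial in a corn field following GB/T 17980.42-2000. Test compounds were formulated as 10% emulsifiable concentrates, diluted in water and sprayed post-emergence at 150 g(a.i.)/ha when corn had 2 to 5 leaves, with 4 replicates on 20 m^2 plots. Control of Digitaria sanguinalis was scored on a 1-9 scale based on weed damage relative to the untreated blank area.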

Convolvulus arvensis = test: Field test for weed control in a corn field; details: for Post-emergence weed control effect, Convolvulus arvensis: 150 g a.i./ha, after treatment
Procedure, shortened: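 Field trial of weed control against Convolvulus arvensis in corn, run following GB/T 17980.42-2000. Test agents were formulated as 10% emulsifiable concentrates and sprayed in water at 150 g(a.i.)/ha when corn plants had 2 to 5 leaves. Each treatment was replicated 4 times on 20 m^2 plots, and 25% mesotrione oil dispersion served as the control agent.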

Solanum nigrum = test: Field test for weed control in a corn field; details: for Post-emergence weed control effect, Solanum nigrum: 150 g a.i./ha, 30 days after treatment
Procedure, shortened: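 Post-emergence weed control was tested in a corn field following GB/T 17980.42-2000. Compounds were made into 10% emulsifiable concentrates, diluted in water and sprayed at 150 g(a.i.)/ha when corn had 2 to 5 leaves after sowing, in 20 m^2 plots with 4 replicates. Effects on Solanum nigrum were graded on a 1-9 scale relative to the blank control area.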

nutgrass flatsedge = test: Field test for weed control in a corn field; details: for Post-emergence weed control effect, Nutgrass flatsedge: 150 g a.i./ha, after treatment
Procedure, shortened: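 A corn field efficacy trial following GB/T 17980.42-2000 assessed post-emergence control of nutgrass flatsedge. Test compounds were formulated as 10% emulsifiable concentrates, diluted in water, and sprayed at 150 g(a.i.)/ha when the corn had 2 to 5 leaves. Each treatment had 4 replicates on 20 m^2 plots. Herbicidal activity was graded on a 1-9 scale by damage symptoms and severity.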

Portulaca oleracea = test: Field test for weed control in a corn field; details: for Post-emergence weed control effect, Portulaca oleracea: 150 g a.i./ha, after treatment
Procedure, shortened: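 Field efficacy trial in corn following GB/T 17980.42-2000. Test compounds were prepared as 10% emulsifiable concentrates, diluted in water, and sprayed at 150 g(a.i.)/ha when corn had 2 to 5 leaves after sowing. Plots were 20 m^2 with 4 replicates per treatment. Herbicidal activity was scored on a 1-9 scale from weed damage symptoms and severity.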

Acalypha australis = test: Field test for weed control in a corn field; details: for Post-emergence weed control effect, Acalypha australis: 150 g a.i./ha, after treatment
Procedure, shortened: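 Post-emergence field trial in a corn field following GB/T 17980.42-2000. Test compounds were formulated as 10% emulsifiable concentrates, diluted in water, and sprayed at 150 g(a.i.)/ha when corn had 2 to 5 leaves, with 4 replicates on 20 m^2 plots. Mesotrione 25% oil dispersion served as the control agent. Weed control was scored on a 1-9 scale.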

green bristlegrass [8] = test: Field test for weed control in a corn field; details: for Post-emergence weed control effect, Green bristlegrass: 150 g a.i./ha, after treatment
Procedure, shortened: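 Post-emergence weed control was tested in a corn field following GB/T 17980.42-2000. When the corn had 2 leaves to 5 leaves after sowing, 10% emulsifiable concentrates diluted in water were sprayed at 150 g(a.i.)/ha on 20 m^2 plots, four replicates per treatment. Effects on green bristlegrass were scored on a 1-9 damage scale relative to the blank control area.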

Barnyard grass [9] = test: Field test for weed control in a corn field; details: for Post-emergence weed control effect, Barnyard grass: 150 g a.i./ha, 30 days after treatment
Procedure, shortened: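 Corn-field efficacy trial following GB/T 17980.42-2000. Test compounds were formulated as 10% emulsifiable concentrates, diluted in water and sprayed post-emergence at 150 g(a.i.)/ha when corn had 2 to 5 leaves. Each treatment was replicated 4 times on 20 m^2 plots. Barnyard grass control was rated on a 1-9 damage scale.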

Gramineae = test: Post-emergence herbicidal activity test in a paddy field; design: key: level scale; higher level = more weed left vs blank control; details: 150 g a.i./ha (penoxsulam control 250 g(a.i.)/h)
Procedure, shortened: (§2)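 Efficacy was visually estimated 15 and 30 days after spraying, grading weed coverage relative to an untreated neighbouring plot (level 2 = 0 to 2.5%, level 9 = 67.6 to 100%). Treatments were 150 g(a.i.)/ha from 10% emulsifiable concentrates applied at the 4-5 leaf rice stage, four repeats of 50 m^2 each.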

Cyperaceae = test: as above; design: key: level scale; higher level = more weed left vs blank control; details: 150 g a.i./ha (penoxsulam control 250 g(a.i.)/h)
Procedure, shortened: as §2

Broadleaf weed = test: as above; design: key: level scale; higher level = more weed left vs blank control; details: 150 g a.i./ha (penoxsulam control 250 g(a.i.)/h)
Procedure, shortened: as §2

Amaranthus retroflexus [10] = test: Herbicidal activity test for indoor post-emergence spraying on stems and leaves; design: key: grade level by weed remaining vs blank control, e.g. 5 = 10.1-15%; details: 150 g a.i./ha, visual inspection 21 days after treatment
Procedure, shortened: (§3)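 Post-emergence stem and leaf spray in an indoor test following NY/T 1155.4-2006, with weeds sown and grown in a greenhouse. Effect scored visually 21 days after treatment as graded levels, each level set by the percentage of weed remaining relative to the blank control area.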

Digitaria sanguinalis [11] = test: as above; design: key: grade level by weed remaining vs blank control, e.g. 5 = 10.1-15%; details: 150 g a.i./ha, visual inspection 21 days after treatment
Procedure, shortened: as §3

green bristlegrass [12] = test: as above; design: key: grade level by weed remaining vs blank control, e.g. 5 = 10.1-15%; details: 150 g a.i./ha, visual inspection 21 days after treatment
Procedure, shortened: as §3

Piemarker [13] = test: as above; design: key: grade level by weed remaining vs blank control, e.g. 5 = 10.1-15%; details: 150 g a.i./ha, visual inspection 21 days after treatment
Procedure, shortened: as §3

Barnyard grass [14] = test: as above; design: key: grade level by weed remaining vs blank control, e.g. 5 = 10.1-15%; details: 150 g a.i./ha, visual inspection 21 days after treatment
Procedure, shortened: as §3

Humulus scandens [15] = test: as above; design: key: grade level by weed remaining vs blank control, e.g. 5 = 10.1-15%; details: 150 g a.i./ha, visual inspection 21 days after treatment
Procedure, shortened: as §3

Humulus scandens [16] = test: Herbicidal activity test for indoor pre-emergence soil treatment; details: 150 g a.i./ha, visual inspection 21 days after treatment
Procedure, shortened: as §1

[17] = 150 g(a.i.)/ha, 21 days after treatments

Row | Compound | Herbicidal Activity Amaranthus retroflexus (Amaranthus retroflexus [1]) | Herbicidal Activity Digitaria sanguinalis (Digitaria sanguinalis [2]) | Herbicidal Activity Green bristlegrass (green bristlegrass [3]) | Herbicidal Activity Piemarker (Piemarker [4]) | Herbicidal Activity Barnyard grass (Barnyard grass [5]) | Post-emergence weed control effect, Amaranthus retroflexus (Amaranthus retroflexus [6]) | Post-emergence weed control effect, Goose grass (goosegrass) | Post-emergence weed control effect, Chenopodium album (Chenopodium album) | Post-emergence weed control effect, Digitaria sanguinalis (Digitaria sanguinalis [7]) | Post-emergence weed control effect, Convolvulus arvensis (Convolvulus arvensis) | Post-emergence weed control effect, Solanum nigrum (Solanum nigrum) | Post-emergence weed control effect, Nutgrass flatsedge (nutgrass flatsedge) | Post-emergence weed control effect, Portulaca oleracea (Portulaca oleracea) | Post-emergence weed control effect, Acalypha australis (Acalypha australis) | Post-emergence weed control effect, Green bristlegrass (green bristlegrass [8]) | Post-emergence weed control effect, Barnyard grass (Barnyard grass [9]) | Herbicidal activity 15 days after treatment Gramineae (Gramineae) | Herbicidal activity 30 days after treatment Gramineae (Gramineae) | Herbicidal activity 15 days after treatment Cyperaceae (Cyperaceae) | Herbicidal activity 30 days after treatment Cyperaceae (Cyperaceae) | also measured
1 | COc1ccccc1C(=O)NCc1ccc(F)cc1 [Compound A02] | 3 (equivalent to 2.6 to 5% of the weed in the blank control area) | 1 | 2 (equivalent to 0 to 2.5% of the weed in the blank control area) | 2 (equivalent to 0 to 2.5% of the weed in the blank control area) | 1 | 1 | 1 | 1 | 1 | 1 | 1 | 1 | 1 | 1 | 1 | 1 | 1 | 1 | 1 | 1 | controlling effect on Amaranthus retroflexus (Amaranthus retroflexus [6]; [17]): 1; controlling effect on goosegrass (goosegrass; [17]): 1; controlling effect on Chenopodium album (Chenopodium album; [17]): 1; controlling effect on Digitaria sanguinalis (Digitaria sanguinalis [7]; [17]): 1; controlling effect on Convolvulus arvensis (Convolvulus arvensis; [17]): 1; controlling effect on Solanum nigrum (Solanum nigrum; [17]): 1; controlling effect on nutgrass flatsedge (nutgrass flatsedge; [17]): 1; controlling effect on Portulaca oleracea (Portulaca oleracea; [17]): 1; controlling effect on Acalypha australis (Acalypha australis; [17]): 1; controlling effect on green bristlegrass (green bristlegrass [8]; [17]): 1; controlling effect on barnyard grass (Barnyard grass [9]; [17]): 1; Herbicidal activity 15 days after treatment Broadleaf weed (Broadleaf weed): 1; Herbicidal activity 30 days after treatment Broadleaf weed (Broadleaf weed): 1; Herbicidal Activity Amaranthus retroflexus (Amaranthus retroflexus [10]): 1; Herbicidal Activity Digitaria sanguinalis (Digitaria sanguinalis [11]): 1; Herbicidal Activity Green bristlegrass (green bristlegrass [12]): 2 (equivalent to 0 to 2.5% of the weed in the blank control area); Herbicidal Activity Piemarker (Piemarker [13]): 1; Herbicidal Activity Barnyard grass (Barnyard grass [14]): 1; Herbicidal Activity Humulus scandens (Humulus scandens [15]): 1; Herbicidal Activity Humulus scandens (Humulus scandens [16]): 4 (equivalent to 5.1 to 10% of the weed in the blank control area)
2 | COc1ncccc1C(=O)NCc1cccc(Cl)c1 [Compound A91] | 1 | 2 (equivalent to 0 to 2.5% of the weed in the blank control area) | 1 | 1 | 1 | 1 | 2 (equivalent to 0 to 2.5% of the weed in the blank control area) | 1 | 2 (equivalent to 0 to 2.5% of the weed in the blank control area) | 1 | 2 (equivalent to 0 to 2.5% of the weed in the blank control area) | 2 (equivalent to 0 to 2.5% of the weed in the blank control area) | 1 | 2 (equivalent to 0 to 2.5% of the weed in the blank control area) | 2 (equivalent to 0 to 2.5% of the weed in the blank control area) | 1 | 2 (equivalent to 0 to 2.5% of the weed in the blank control area) | 2 (equivalent to 0 to 2.5% of the weed in the blank control area) | 1 | 1 | Herbicidal activity 15 days after treatment Broadleaf weed (Broadleaf weed): 1; Herbicidal activity 30 days after treatment Broadleaf weed (Broadleaf weed): 1; Herbicidal Activity Amaranthus retroflexus (Amaranthus retroflexus [10]): 1; Herbicidal Activity Digitaria sanguinalis (Digitaria sanguinalis [11]): 1; Herbicidal Activity Green bristlegrass (green bristlegrass [12]): 1; Herbicidal Activity Piemarker (Piemarker [13]): 1; Herbicidal Activity Barnyard grass (Barnyard grass [14]): 1; Herbicidal Activity Humulus scandens (Humulus scandens [15]): 1; Herbicidal Activity Humulus scandens (Humulus scandens [16]): 2 (equivalent to 0 to 2.5% of the weed in the blank control area)
